Test results from patent US5445951A, “Regioselective enzymatic deacylation of sucrose esters in anhydrous organic media” (priority 1993, dated 1995).
Several values for one entry are separate records, joined by “and”; a condition that tells them apart may be missing. Identical values can stand only once. Like-named read-outs stand apart in the source and are kept apart here.

Experiments:
[1] = target: T1, alcalase (Bacillus licheniformis, UniProt P00780); assay: Nucleophile screening for alcalase catalyzed deacetylation of SOA in diisopropyl ether; type: biochemical; conditions: nucleophile 200 mM, peak height ratio 1'-OH / 6'-OH heptaacetate
T1 construct: purchased Novo Nordisk (gift)
T1 sequence (P00780 106-379): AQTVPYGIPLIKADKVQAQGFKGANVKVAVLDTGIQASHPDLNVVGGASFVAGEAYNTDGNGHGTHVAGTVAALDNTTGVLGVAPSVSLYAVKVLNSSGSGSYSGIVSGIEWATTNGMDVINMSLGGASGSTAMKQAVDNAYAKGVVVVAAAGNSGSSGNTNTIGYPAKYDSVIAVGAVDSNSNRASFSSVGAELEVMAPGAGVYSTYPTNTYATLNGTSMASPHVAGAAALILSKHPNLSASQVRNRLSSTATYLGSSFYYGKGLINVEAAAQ
Method: (§1) Nucleophile screening for alcalase, proleather or lipase AP 12 catalyzed deacetylation of SOA. A scintillation vial was charged successively with 100 mg of powdered enzyme prepared as described, 1.0 ml of 20 mM sucrose octaacetate (SOA) and 200 mM of the nucleophile dissolved in diisopropyl ether. Following a 5 sec sonication, the vial was incubated in a controlled-temperature shaker at 45° C. and 300 RPM for 66 hrs. A 200 μl aliquot of the reaction mixture was withdrawn and centrifuged. The supernatant was collected and evaporated under a stream of N2. The residue was reconstituted in 200 μl of acetonitrile and 10 μl of this solution was analyzed by HPLC. For screening concentration effects on enzyme activity, the same protocol was followed except the nucleophile concentration was varied from 0 to 2000 mM.

[2] = test system: lipase AP 12; assay: Nucleophile screening for lipase AP 12 catalyzed deacetylation of SOA in diisopropyl ether; type: biochemical, Aspergillus niger; conditions: lipase AP 12, nucleophile 200 mM, 66 hrs
Method: as §1

[3] = test system: proleather; assay: Nucleophile screening for proleather catalyzed deacetylation of SOA in diisopropyl ether; type: biochemical, Bacillus subtilis; conditions: nucleophile 200 mM; for % conv: 66 hrs; for regiochem: peak height ratio 1'-OH / 6'-OH heptaacetate
Method: as §1

[4] = target: T1, alcalase; assay: Solvent effect on alcalase catalyzed deacetylation of SOA; type: biochemical; conditions: 24 hrs; for SheptaA: total of 1'-OH and 6'-OH heptaacetates; for SOA / ShexaA: solvent as labelled
Method: (§2) Identical enzyme catalyzed SOA deacetylations were run in numerous anhydrous solvents. After 24 hrs incubation an aliquot was analyzed by HPLC.
Enzyme Precipitation. Alcalase was prepared by adding 37.5 ml cold acetone (-20° C.) to 25 ml of alcalase solution as supplied by Novo. The aqueous acetone was decanted and the residue dissolved in 25 ml of pH 9.0 glycine--NaOH buffer. The pH of this solution was adjusted to 9.0 with a few drops of dilute NaOH solution. Cold acetone (37.5 ml at -20° C.) was added to the buffered alcalase solution and the precipitate collected by filtration on a medium porosity glass funnel and dried overnight at 2 millitorr. The resulting pellet was ground to a fine powder and stored at 4° C. over saturated aqueous potassium carbonate (RH: 43%) for 24 hrs.
(§3) Enzyme and Solvent Screening for SOA Deacetylation. A scintillation vial was charged successively with 100 mg of powdered enzyme as received or prepared as described and 1.0 ml of 20 mM sucrose octaacetate (SOA) dissolved in an organic solvent. Following a 5 sec sonication, the vial was incubated in a controlled-temperature shaker at 45° C. and 300 RPM for 24 hrs. A 200 μl aliquot of the reaction mixture was withdrawn and centrifuged. The supernatant was collected and evaporated under a stream of N2. The residue was reconstituted in 200 μl of acetonitrile and 10 μl of this solution was analyzed by HPLC.

[5] = test system: alcalase deposited on Hyflo Super Cell; assay: Solvent effect on alcalase deposited on Hyflo Super Cell catalyzed deacetylation of SOA; type: biochemical, Bacillus licheniformis; conditions: immobilized alcalase, 4 hour incubation; for SheptaA: total of 1'-OH and 6'-OH heptaacetates
Method: (§4) Alcalase and lipase AY 30 were deposited on Hyflo Super Cell and used as catalysts for SOA deacetylation reactions in several anhydrous solvents.
(§5) Enzyme immobilization. The pH of a solution of 900 mg of buffered alcalase in 18 ml of water was adjusted to 9.0 with dilute NaOH. Hyflo super cell (6 g) was added and the slurry thoroughly mixed. […] Lipase AY 30 was immobilized in the same manner except that the protein solution was adjusted to pH 7.0 with sodium phosphate.
as §3, with “Following a 5 sec sonication, the vial was incubated in a controlled-temperature shaker at 45° C. and 300 RPM for 24 hrs.” left out

[6] = test system: lipase AP 12; assay: Solvent effect on lipase AP 12 catalyzed deacetylation of SOA; type: biochemical, Aspergillus niger; conditions: lipase AP 12, solvent as labelled, 24 hrs
Method: as §2
(§6) The pH of commercial powdered enzymes was adjusted in the following way: The enzyme (3 g) was dissolved in 25 ml of an appropriate buffer and the pH adjusted with dilute NaOH or citric/phosphoric acid solution. Cold acetone (37.5 ml at -20° C.) was added and the precipitate collected on a medium porosity glass funnel and dried overnight at 2 millitorr. The protein pellet was ground to a fine powder and equilibrated at 4° C. over saturated aqueous potassium carbonate (RH: 43%) for 24 hrs.
as §3

[7] = n-octanol/water, cited from earlier work
[8] = test system: proleather; assay: Solvent effect on proleather catalyzed deacetylation of SOA; type: biochemical, Bacillus subtilis; conditions: 24 hrs; for SheptaA: total of 1'-OH and 6'-OH heptaacetates; for SOA / ShexaA: solvent as labelled
Method: as §2, §6, §3

[9] = test system: lipase AY 30; assay: Effect of the solvent on lipase AY 30 catalyzed deacylation of SOP; type: biochemical, Candida cylindracea; conditions: for ShexaP (4.2 min) / SheptaP's (8.9 min) / SheptaP's (9.4 min) / SheptaP's ([…]): lipase AY 30, 24 hrs; for ShexaP (4.2 min): HPLC peak 4.2 min; for SheptaP's (8.9 min): HPLC peak 8.9 min; for SheptaP's (9.4 min): HPLC peak 9.4 min; for SheptaP's ([…]): HPLC peak […]; for SOA: lipase AY 30, solvent as labelled, 200 mM butanol, 24 hrs, peak 21.4 min; as to SheptaP's ([…]): HPLC peak 8.2 min
Method: Identical SOP deacylations were performed with lipase AY 30 or protease type XXIII in numerous anhydrous organic solvents, as shown in Tables 12 and 13.
as §3, with “Solvent” for “Enzyme and Solvent”, “screening” for “Screening”, “SOP deacylation.” for “SOA Deacetylation.”, “lipase AY 30” for “powdered enzyme as received”, “protease type XXIII” for “prepared”, “octapropionate (SOP) and 200mM butanol” for “octaacetate (SOA)”

[10] = test system: lipase AY 30; assay: Effect of the solvent on lipase AY 30 SOA deacetylation; type: biochemical, Candida cylindracea; conditions: lipase AY 30, solvent as labelled, 24 hrs
Method: as §2, §3

[11] = test system: lipase AY 30 deposited on Hyflo Super Cell; assay: Solvent effect on lipase AY 30 deposited on Hyflo Super Cell catalyzed deacetylation of SOA; type: biochemical, Candida cylindracea; conditions: immobilized lipase AY 30, 24 hrs
Method: as §4, §5, §3

Structure (SMILES) | SheptaA [4] [%] | SOA [4] [%] | ShexaA [4] [%] | SOA [6] [%] | SheptaA [6] [%] | ShexaA [6] [%] | SOA [10] [%] | SheptaA [10] [%] | ShexaA [10] [%] | SOA [5] [%] | ShexaA [5] [%] | SheptaA [5] [%] | log P ([7]; from Laane et al.) | SheptaA [8] [%] | SOA [8] [%] | ShexaA [8] [%] | ShexaP (4.2 min) [9] [%] | SheptaP's (8.9 min) [9] [%] | SOA [11] [%] | SheptaA [11] [%] | other results
OCCC1CCCCN1 (stereo not shown) [2-piperidineethanol] |  |  |  |  |  |  |  |  |  |  |  |  |  |  |  |  |  |  |  |  | regiochem [1]: 8.6; % conv [2]: 10.4%; % conv [3]: 41.3%; regiochem [3]: 5.1
ClC(Cl)(Cl)Cl [CCl4, carbon tetrachloride] | 5.2 | 94.8 | 0 | 95.1 | 4.3 | 0.6 | 86.9 | 10.4 | 2.7 | 98.6 | 0 | 1.4 | 3.0 and 3.1 | 9.6 | 89.1 | 1.3 | 0 | 0 | 97.5 | 2.5 | SheptaP's (9.4 min) [9]: 0.7%; SheptaP's ([…]) [9]: 1.1%; SOA [9]: 98.2%
OCc1ccccc1 [benzyl alcohol] |  |  |  |  |  |  |  |  |  |  |  |  |  |  |  |  |  |  |  |  | regiochem [1]: 8.1; % conv [2]: 22.5%; % conv [3]: 46.8%; regiochem [3]: 6.6
CCCCO [butanol, n-butanol] |  |  |  |  |  |  |  |  |  |  |  |  |  |  |  |  |  |  |  |  | regiochem [1]: 7.4; % conv [2]: 25.7%; % conv [3]: 44.4%; regiochem [3]: 4.8
OCC1CCCCC1 [cyclohexylmethanol] |  |  |  |  |  |  |  |  |  |  |  |  |  |  |  |  |  |  |  |  | regiochem [1]: 8.1; % conv [2]: 24.8%; % conv [3]: 42.8%; regiochem [3]: 4.4
CCCCOC(C)=O [n-butyl acetate] | 2.4 | 97.6 | 0 | 97.6 | 2.4 | 0 | 95.2 | 4.6 | 0.4 |  |  |  | 1.7 | 16.5 | 81.3 | 2.2 | 0 | 0 | 97.6 | 2.4 | SheptaP's (9.4 min) [9]: 0.7%; SheptaP's ([…]) [9]: 1.4%; SOA [9]: 97.9%
CC(=O)OC(C)(C)C [t-butyl acetate] |  |  |  |  |  |  |  |  |  | 98.2 | 0 | 1.8 | 1.7 |  |  |  |  |  |  |  | 
CCOC(C)(C)C [t-butyl ethyl ether] |  |  |  |  |  |  | 40.8 | 38.1 | 21.1 |  |  |  | 1.9 | 2.8 |  | 0 |  |  |  |  | 
COC(C)(C)C [t-butyl methyl ether] | 6.8 | 92.6 | 0.6 |  |  |  | 61.6 | 28.8 | 9.6 | 97.3 | 0 | 2.7 | 1.3 | 24.4 | 72.4 | 3.2 | 0.8 | 0.3 | 96.0 | 4.0 | SheptaP's (9.4 min) [9]: 5.9%; SheptaP's ([…]) [9]: 4.3%; SOA [9]: 88.7%

Further lines, with some results ahead:

SheptaA [4] [%] | SOA [4] [%] | ShexaA [4] [%] | SOA [6] [%] | SheptaA [6] [%] | ShexaA [6] [%] | SOA [10] [%] | SheptaA [10] [%] | ShexaA [10] [%] | Structure (SMILES) | SOA [5] [%] | ShexaA [5] [%] | SheptaA [5] [%] | log P ([7]; from Laane et al.) | SheptaA [8] [%] | SOA [8] [%] | ShexaA [8] [%] | ShexaP (4.2 min) [9] [%] | SheptaP's (8.9 min) [9] [%] | SOA [11] [%] | SheptaA [11] [%] | other results
3.9 | 96.1 | 0 | 96.2 | 3.8 | 0 | 86.1 | 9.6 | 4.3 | COc1ccccc1 [anisole] | 98.0 | 0 | 2.0 |  | 19.4 | 79.2 | 1.4 |  |  | 98.2 | 1.2 | log P [7]: 2.1
16.9 | 81.4 | 1.7 | 81.6 | 16.3 | 2.1 | 73.9 | 21.4 | 4.7 | CCCCOCC [butyl ethyl ether] | 97.8 | 0 | 2.2 | 1.9 |  |  |  |  |  | 96.0 | 4.0 | 
22.3 | 75.2 | 2.5 | 82.7 | 15.7 | 1.6 | 29.6 | 39.6 | 30.9 | CC(C)OC(C)C [diisopropyl ether] | 89.3 | 0.8 | 9.9 |  | 25.9 | 70.6 | 3.5 | 13.0 | 1.5 | 85.7 | 14.3 | log P [7]: 1.9; SheptaP's (9.4 min) [9]: 13.5%; SheptaP's ([…]) [9]: 17.3%; SOA [9]: 54.7%
14.5 | 83.9 | 1.6 | 81.8 | 15.9 | 2.3 | 51.6 | 32.4 | 16.0 | CCCOCCC [dipropyl ether] | 92.9 | 0.6 | 6.5 | 1.9 | 21.5 | 75.2 | 3.3 |  |  | 93.4 | 6.6 | 
 |  |  |  |  |  | 93.4 | 6.0 | 0.6 | CCCCCCCO [heptanol] |  |  |  | 2.5 |  |  |  | 0 | 0 |  |  | SheptaP's (9.4 min) [9]: 0.7%; SheptaP's ([…]) [9]: 1.4%; SOA [9]: 97.9%
